Results reported in PubChem BioAssay (NCI).
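These data come from cells grown in 96-well plates and exposed to compound for 48 hours at five concentrations. Here, GI50 denotes the concentration required for 50% inhibition of growth. The concentration for full growth arrest is given as TGI.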

Columns and labels:
Experiment in all cases: DTP human tumour cell line panel, 48 h
HCC-2998 colon = test system: HCC-2998 colon
HL-60(TB) leukemia = test system: HL-60(TB) leukemia
HT29 colon = test system: HT29 colon
MCF7 breast = test system: MCF7 breast
MDA-MB-231 breast = test system: MDA-MB-231 breast
MOLT-4 leukemia = test system: MOLT-4 leukemia
OVCAR-4 ovarian = test system: OVCAR-4 ovarian
SK-MEL-28 melanoma = test system: SK-MEL-28 melanoma
SK-MEL-5 melanoma = test system: SK-MEL-5 melanoma
OVCAR-5 ovarian = test system: OVCAR-5 ovarian

SMILES	TGI (HCC-2998 colon) [µM]	TGI (HL-60(TB) leukemia) [µM]	TGI (HT29 colon) [µM]	TGI (MCF7 breast) [µM]	TGI (MDA-MB-231 breast) [µM]	TGI (MOLT-4 leukemia) [µM]	TGI (OVCAR-4 ovarian) [µM]	TGI (SK-MEL-28 melanoma) [µM]	TGI (SK-MEL-5 melanoma) [µM]	TGI (OVCAR-5 ovarian) [µM]	GI50 (SK-MEL-5 melanoma) [µM]
O=C(C(Cl)=C(N1CCOCC1)N1CCOCC1)C(Cl)Cl	> 100	> 100	> 100	> 100	> 100	> 100	> 100	> 100	> 100		
CCOC(=O)c1cn2c(n1)sc1cc(Cl)cc(Cl)c12	> 100		> 100	> 100	> 100	> 100	> 100	> 100	> 100	> 100	
CCOC(=O)/C(O)=C1\C(=O)N(C)C(=O)C1c1cccc(OC)c1 (configuration not stated)	> 100	> 100	> 100	> 100		> 100	> 100	> 100	> 100	> 100	
Cn1c2ccccc2c(=O)c2c(O)cc3c(c21)C=CC1(CCCCC1)O3	> 10		> 10	> 10	> 10	> 10	> 10	> 10	> 10	> 10	
C=C1c2nc3ccccc3n2C=C(c2ccc(Cl)cc2)N1c1ccc(OC)cc1	28.3	> 100		31.8	53.6	> 100	46.2	22.2	46.2	35	
CN(C)CC1CCC(CN(C)C)C1=O (configuration not stated)	32.9		16.2	1.8	4.18	4.03	15.8	36.5	15.9	20.3	
CCOP(=O)(/C=C\n1ccc(N)nc1=O)OCC		> 100	> 100	> 100	> 100	> 100	> 100	> 100	> 100	> 100	
S=c1cc(-c2ccc3c(c2)OCO3)s[nH]1		> 100	> 100	> 100	> 100	> 100	> 100	> 100	> 100	> 100	
Cc1ccc(/C=C2\Cc3c(C)cc(C)cc3C2=O)c(C(=O)O)c1	98.6	65.5	> 100	> 100		> 100	> 100	> 100	85.2	> 100	
CNC(=O)CCCNC(=O)CCCC(=O)N(C)C	> 100	> 100	> 100	> 100	> 100	> 100		> 100	> 100	> 100	
COc1cc2c(c(O)c1OC)C(=O)C(Cc1ccc(O)cc1)CO2 (configuration not stated)		98.3	> 100	8.65	77.4	> 100	> 100	> 100	49	> 100	
COc1cc2c(cc1OC)-c1cc3ccccc3c(=O)n1CC2	50.1		98.9	> 100	43.8	97	> 100	90.5	23.5	> 100	
COCCOCCOC1=CC(=O)c2c(O)ccc(O)c2C1=O	3.51	2.52	1.79	2.88	2.83	5.56	3.13	2.92	0.329		
COc1ccc(COCC[C@H](C)OC2OC(CO[Si](C)(C)C(C)(C)C)C(OC(=O)CCCN=[N+]=[N-])C(OC(=O)CCCN=[N+]=[N-])C2OC(=O)CCCN=[N+]=[N-])cc1 (some centres not stated)	> 100	41.5	62.7	> 100	> 100		> 100	> 100	25.4	> 100	
CC12CCCC3(CC(=O)C(C)(C)C3C(=O)C1)C2 (configuration not stated)		> 100	> 100	> 100		> 100	> 100	> 100	> 100	> 100	
c1c2c(cc(-n3nnc4c3CCCCCC4)c1-n1nnc3c1CCCCCC3)CCCCCC2	29.5	> 100	19.8			11		33.9	24.7	30	
C\C(=N/N=C1/C(=C\N(C)C)C(=O)NC(=O)N1C)c1ccc(Cl)cc1	> 100		> 100	> 100	> 100	> 100	> 100	> 100	> 100	> 100	
CC1(C)[C@H]2CC[C@@]13C(=O)N1C(=O)O[C@@H]([C@H]1Cl)C(Cl)(COCc1ccccc1)C(=O)OCCO[C@H]3C2 (some centres not stated)	> 100	> 100	> 100	> 100		76.9	> 100	> 100	> 100	> 100	
CN(C)CCNC(=O)c1cccc2nc(-c3ccccc3)oc12	> 100	96.2	> 100	28.2		> 89.5	> 100	> 100	59.6	> 100	
O=C1CSC2=NC3=C(COC/C3=C\c3ccc(Br)cc3)C(c3ccc(Br)cc3)N12 (configuration not stated)	> 100	36.9		> 100	> 100	64.2	> 100		> 100	> 100	
COc1cc2ccc1OCc1cccc(n1)COc1ccc(cc1OC)C=Nc1ccc(cc1)N=C2	> 100	> 100	> 100	> 100	> 100	> 100	> 100		> 100	> 100	
CO[C@@H]1O[C@H](C(=O)c2ccccc2)[C@H]2OC(C)(C)O[C@@H]12	> 100	> 100		> 100	> 100	> 100	> 100		> 100	> 100	
COc1ccc(CC2COc3cc(O)cc(O)c3C2=O)cc1O (configuration not stated)		> 100	27.5	> 100	> 100	> 100	> 100	> 100	> 100	> 100	
O=c1cc(/C=C/c2ccccc2)[nH]c2cc3c(cc12)OCO3	7.47		5.58	21.5	9.18	13.7	30.2	34.9	12.3	14.2	2.17
